# Measurements reported in PubChem BioAssay (NCI).
#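 Tested at 5 concentrations; 48 h exposure; 96-well plates; endpoints linearly interpolated, else capped at highest concentration. Definition used: TGI = concentration required for complete inhibition of growth.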
# Key:
# Experiment in all cases: NCI tumour cell line growth inhibition, 48 h
# 786-0 renal = tested on: 786-0 renal
# A498 renal = tested on: A498 renal
# A549 NSCLC = tested on: A549 NSCLC
# ACHN renal = tested on: ACHN renal
# BT-549 breast = tested on: BT-549 breast
# CAKI-1 renal = tested on: CAKI-1 renal
# CCRF-CEM leukemia = tested on: CCRF-CEM leukemia
# COLO 205 colon = tested on: COLO 205 colon
# DU-145 prostate = tested on: DU-145 prostate
# EKVX NSCLC = tested on: EKVX NSCLC
# HCC-2998 colon = tested on: HCC-2998 colon
# HCT-116 colon = tested on: HCT-116 colon
# HCT-15 colon = tested on: HCT-15 colon
# HL-60(TB) leukemia = tested on: HL-60(TB) leukemia
# HOP-62 NSCLC = tested on: HOP-62 NSCLC
# HOP-92 NSCLC = tested on: HOP-92 NSCLC
# HS 578T breast = tested on: HS 578T breast
# HT29 colon = tested on: HT29 colon
# K-562 leukemia = tested on: K-562 leukemia
# KM12 colon = tested on: KM12 colon
# LOX IMVI melanoma = tested on: LOX IMVI melanoma
# M14 melanoma = tested on: M14 melanoma
# MALME-3M melanoma = tested on: MALME-3M melanoma
# MCF7 breast = tested on: MCF7 breast
# MDA-MB-231 breast = tested on: MDA-MB-231 breast
# MDA-MB-435 = tested on: MDA-MB-435
# MDA-N = tested on: MDA-N
# MOLT-4 leukemia = tested on: MOLT-4 leukemia
# NCI-H226 lung = tested on: NCI-H226 lung
# NCI-H460 lung = tested on: NCI-H460 lung
# NCI/ADR-RES ovarian = tested on: NCI/ADR-RES ovarian
# OVCAR-3 ovarian = tested on: OVCAR-3 ovarian
# OVCAR-4 ovarian = tested on: OVCAR-4 ovarian
# OVCAR-5 ovarian = tested on: OVCAR-5 ovarian
# OVCAR-8 ovarian = tested on: OVCAR-8 ovarian
# PC-3 prostate = tested on: PC-3 prostate
# RPMI-8226 leukemia = tested on: RPMI-8226 leukemia
# RXF 393 renal = tested on: RXF 393 renal
# SF-268 CNS = tested on: SF-268 CNS
# SF-295 CNS = tested on: SF-295 CNS
# SF-539 CNS = tested on: SF-539 CNS
# SK-MEL-28 melanoma = tested on: SK-MEL-28 melanoma
# SK-MEL-5 melanoma = tested on: SK-MEL-5 melanoma
# SK-OV-3 ovarian = tested on: SK-OV-3 ovarian
# SN12C renal = tested on: SN12C renal
# SNB-19 CNS = tested on: SNB-19 CNS
# SNB-75 CNS = tested on: SNB-75 CNS
# SR leukemia = tested on: SR leukemia
# T-47D breast = tested on: T-47D breast
# TK-10 renal = tested on: TK-10 renal
# U251 CNS = tested on: U251 CNS
# UACC-257 melanoma = tested on: UACC-257 melanoma
# UACC-62 melanoma = tested on: UACC-62 melanoma
# IGROV1 ovarian = tested on: IGROV1 ovarian
# NCI-H23 lung = tested on: NCI-H23 lung
# NCI-H522 lung = tested on: NCI-H522 lung
# SK-MEL-2 melanoma = tested on: SK-MEL-2 melanoma
# SW-620 colon = tested on: SW-620 colon
# UO-31 renal = tested on: UO-31 renal
compound,measurement,setting,value
C/C(=N\O)c1cccc(Nc2nc3ccccc3c3occc23)c1,TGI,786-0 renal,26.7 µM
same,TGI,A498 renal,29.2 µM
same,TGI,A549 NSCLC,32.5 µM
same,TGI,ACHN renal,22.8 µM
same,TGI,BT-549 breast,26.9 µM
same,TGI,CAKI-1 renal,34.2 µM
same,TGI,CCRF-CEM leukemia,31 µM
same,TGI,COLO 205 colon,26.4 µM
same,TGI,DU-145 prostate,27.8 µM
same,TGI,EKVX NSCLC,25.6 µM
same,TGI,HCC-2998 colon,28.9 µM
same,TGI,HCT-116 colon,25.8 µM
same,TGI,HCT-15 colon,22.4 µM
same,TGI,HL-60(TB) leukemia,61.1 µM
same,TGI,HOP-62 NSCLC,32.8 µM
same,TGI,HOP-92 NSCLC,20.2 µM
same,TGI,HS 578T breast,32.8 µM
same,TGI,HT29 colon,15.6 µM
same,TGI,K-562 leukemia,70.5 µM
same,TGI,KM12 colon,27.3 µM
same,TGI,LOX IMVI melanoma,33.2 µM
same,TGI,M14 melanoma,29.7 µM
same,TGI,MALME-3M melanoma,28.9 µM
same,TGI,MCF7 breast,37.1 µM
same,TGI,MDA-MB-231 breast,26.4 µM
same,TGI,MDA-MB-435,24 µM
same,TGI,MDA-N,27.9 µM
same,TGI,MOLT-4 leukemia,32.9 µM
same,TGI,NCI-H226 lung,16.5 µM
same,TGI,NCI-H460 lung,21 µM
same,TGI,NCI/ADR-RES ovarian,29.7 µM
same,TGI,OVCAR-3 ovarian,31.8 µM
same,TGI,OVCAR-4 ovarian,30.2 µM
same,TGI,OVCAR-5 ovarian,30.7 µM
same,TGI,OVCAR-8 ovarian,32.8 µM
same,TGI,PC-3 prostate,25.8 µM
same,TGI,RPMI-8226 leukemia,31.8 µM
same,TGI,RXF 393 renal,21 µM
same,TGI,SF-268 CNS,27.6 µM
same,TGI,SF-295 CNS,22.6 µM
same,TGI,SF-539 CNS,29.6 µM
same,TGI,SK-MEL-28 melanoma,29.2 µM
same,TGI,SK-MEL-5 melanoma,27 µM
same,TGI,SK-OV-3 ovarian,28.7 µM
same,TGI,SN12C renal,33.6 µM
same,TGI,SNB-19 CNS,39.8 µM
same,TGI,SNB-75 CNS,32.3 µM
same,TGI,SR leukemia,35.1 µM
same,TGI,T-47D breast,44.7 µM
same,TGI,TK-10 renal,27.6 µM
same,TGI,U251 CNS,> 100 µM
same,TGI,UACC-257 melanoma,2.59 µM
same,TGI,UACC-62 melanoma,5.22 µM
COc1cc2c3c(n(Cc4ccccc4)c(=O)c2cc1OC)-c1ccccc1C3=O,TGI,786-0 renal,> 100 µM
same,TGI,A549 NSCLC,> 100 µM
same,TGI,ACHN renal,> 100 µM
same,TGI,BT-549 breast,> 100 µM
same,TGI,CAKI-1 renal,> 100 µM
same,TGI,CCRF-CEM leukemia,> 100 µM
same,TGI,COLO 205 colon,> 100 µM
same,TGI,DU-145 prostate,> 100 µM
same,TGI,EKVX NSCLC,> 100 µM
same,TGI,HCC-2998 colon,> 100 µM
same,TGI,HCT-116 colon,> 100 µM
same,TGI,HCT-15 colon,> 100 µM
same,TGI,HL-60(TB) leukemia,> 100 µM
same,TGI,HOP-62 NSCLC,> 100 µM
same,TGI,HOP-92 NSCLC,> 100 µM
same,TGI,HS 578T breast,> 100 µM
same,TGI,HT29 colon,> 100 µM
same,TGI,IGROV1 ovarian,> 100 µM
same,TGI,K-562 leukemia,> 100 µM
same,TGI,KM12 colon,> 100 µM
same,TGI,LOX IMVI melanoma,> 100 µM
same,TGI,M14 melanoma,> 100 µM
same,TGI,MALME-3M melanoma,> 100 µM
same,TGI,MCF7 breast,> 100 µM
same,TGI,MDA-MB-231 breast,> 100 µM
same,TGI,MDA-MB-435,> 100 µM
same,TGI,MDA-N,> 100 µM
same,TGI,MOLT-4 leukemia,> 100 µM
same,TGI,NCI-H226 lung,> 100 µM
same,TGI,NCI-H23 lung,> 100 µM
same,TGI,NCI-H460 lung,> 100 µM
same,TGI,NCI-H522 lung,> 100 µM
same,TGI,NCI/ADR-RES ovarian,> 100 µM
same,TGI,OVCAR-3 ovarian,> 100 µM
same,TGI,OVCAR-4 ovarian,> 100 µM
same,TGI,OVCAR-5 ovarian,> 100 µM
same,TGI,OVCAR-8 ovarian,> 100 µM
same,TGI,PC-3 prostate,> 100 µM
same,TGI,RPMI-8226 leukemia,> 100 µM
same,TGI,RXF 393 renal,> 100 µM
same,TGI,SF-268 CNS,> 100 µM
same,TGI,SF-295 CNS,> 100 µM
same,TGI,SF-539 CNS,> 100 µM
same,TGI,SK-MEL-2 melanoma,> 100 µM
same,TGI,SK-MEL-28 melanoma,> 100 µM
same,TGI,SK-MEL-5 melanoma,> 100 µM
same,TGI,SN12C renal,> 100 µM
same,TGI,SNB-19 CNS,> 100 µM
same,TGI,SNB-75 CNS,> 100 µM
same,TGI,SR leukemia,> 100 µM
same,TGI,SW-620 colon,> 100 µM
same,TGI,T-47D breast,> 100 µM
same,TGI,TK-10 renal,> 100 µM
same,TGI,U251 CNS,> 100 µM
same,TGI,UACC-257 melanoma,> 100 µM
same,TGI,UACC-62 melanoma,> 100 µM
same,TGI,UO-31 renal,> 100 µM
